# Data reported in patent US20160375006A1, “USES OF PARALOG-SELECTIVE INHIBITORS OF GSK3 KINASES” (priority 2012, published 2016).
# Columns and labels:
# [1] = target: ROCK2 (Homo sapiens, UniProt O75116)
# Experimental: (§1) This was completed utilizing one of two assays depending on the kinase being examined.
# (§2) A solution of IMAP binding reagent (IMAP Screening Express kit; Molecular Devices) (60 μL) was added to each well and incubated for 30 minutes.
# (§3) A solution of termination buffer (QuickScout Screening assist MSA; Carna Biosciences) (60 μL) was added to each well. The entire reaction mixture was then applied to a LabChip3000 system (Caliper Life Science) and the product and substrate peptide peaks were separated and quantified.
# [2] = target: AurC (Homo sapiens, UniProt Q9UQB9)
# Experimental: as §1, §2, §3
# [3] = target: SRPK2 (Homo sapiens, UniProt P78362)
# Experimental: as §2, §3
# (§4) The assay utilized was identical to that of the single point inhibitory activity determination (MSA) but run in dose response. […] A solution of termination buffer (QuickScout Screening assist MSA; Carna Biosciences) (60 μL) was added to each well. The entire reaction mixture was then applied to a LabChip3000 system (Caliper Life Science) and the product and substrate peptide peaks were separated and quantified.
# [4] = target: NPM1-ALK (Homo sapiens, UniProt Q9UM73)
# Experimental: as §1, §2, §3
# [5] = target: CHK1 (Homo sapiens, UniProt O14757)
# Experimental: as §1, §2, §3, §4
# [6] = target: DAPK1 (Homo sapiens, UniProt P53355)
# Experimental: as §1, §2, §3, §4
# [7] = target: PKCζ (Homo sapiens, UniProt Q05513)
# Experimental: as §1, §2, §3, §4
# [8] = target: KIT(D816V) (Homo sapiens, UniProt P10721, D816V)
# Experimental: as §1, §2, §3, §4
# [9] = target: TNK1 (Homo sapiens, UniProt Q13470)
# Text: as §1
# The assay utilized was identical to that of the single point inhibitory activity determination (MSA) but run in dose response.
# [10] = target: ABL(E255K) (Homo sapiens, UniProt P00519, E255K)
# Experimental: as §1, §2, §3
# [11] = target: DYRK2 (Homo sapiens, UniProt Q92630)
# Experimental: as §1, §2, §3, §4
# [12] = target: FAK (Homo sapiens, UniProt Q05397)
# Experimental: as §1, §2, §3, §4
# [13] = target: MNK1 (Homo sapiens, UniProt Q9BUB5)
# Experimental: as §1, §2, §3, §4
# [14] = target: p38β (Homo sapiens, UniProt Q15759)
# Experimental: as §1, §2, §3, §4
# [15] = target: NEK2 (Homo sapiens, UniProt P51955)
# Experimental: as §1, §2, §3, §4
# [16] = target: RET(S891A) (Homo sapiens, UniProt P07949, S891A)
# Experimental: as §1, §2, §3, §4
# [17] = target: EPHA4 (Homo sapiens, UniProt P54764)
# Experimental: as §1, §2, §3, §4
# [18] = target: PRKX (Homo sapiens, UniProt P51817)
# Experimental: as §1, §2, §3, §4
# [19] = target: ALK(L1196M) (Homo sapiens, UniProt Q9UM73, L1196M)
# Experimental: as §1, §2, §3, §4
# [20] = target: CDK4/CycD3 (Homo sapiens, UniProt P11802)
# Experimental: as §1, §2, §3
# [21] = target: PKN1 (Homo sapiens, UniProt Q16512)
# Experimental: as §1, §2, §3, §4
# [22] = target: MSK2 (Homo sapiens, UniProt O75676)
# Experimental: as §1, §2, §3, §4
# [23] = target: ABL (Homo sapiens, UniProt P00519)
# Experimental: as §1, §2, §3, §4
# [24] = target: PEK (Homo sapiens, UniProt Q9NZJ5)
# Experimental: as §1, §2, §3
# [25] = target: DDR1 (Homo sapiens, UniProt Q08345)
# Experimental: as §1, §2, §3, §4
# [26] = target: CSK (Homo sapiens, UniProt P41240)
# Experimental: as §1, §2, §3, §4
# [27] = target: CRIK (Homo sapiens, UniProt O14578)
# Experimental: as §1, §2, §3
# [28] = target: ROCK1 (Homo sapiens, UniProt Q13464)
# Experimental: as §1, §2, §3, §4
# [29] = target: NDR2 (Homo sapiens, UniProt Q9Y2H1)
# Experimental: as §1, §2, §3, §4
# [30] = target: BRAF_Cascade (Homo sapiens, UniProt P15056)
# Experimental: as §1, §2, §3, §4
# [31] = target: CGK2 (Homo sapiens, UniProt Q13237)
# Experimental: as §1, §2, §3, §4
# [32] = target: CLK3 (Homo sapiens, UniProt P49761)
# [33] = target: EGFR(d746-750/T790M) (Homo sapiens, UniProt P00533, DEL746-750/T790M)
# Experimental: as §1, §2, §3, §4
# [34] = target: PKD1 (Homo sapiens, UniProt Q15139)
# Experimental: as §1, §2, §3, §4
# [35] = target: TAK1-TAB1_Cascade (Homo sapiens, UniProt O43318)
# Experimental: as §1, §2, §3, §4
# [36] = target: PKCδ (Homo sapiens, UniProt Q05655)
# Experimental: as §1, §2, §3, §4
# [37] = target: CHK2 (Homo sapiens, UniProt O96017)
# Experimental: as §1, §2, §3, §4
# [38] = target: MGC42105 (Homo sapiens, UniProt Q8IY84)
# Experimental: as §1, §2, §3, §4
# [39] = target: MST1 (Homo sapiens, UniProt Q13043)
# Experimental: as §1, §2, §3, §4
# [40] = target: BMX (Homo sapiens, UniProt P51813)
# Experimental: as §1, §2, §3, §4
# PKD1, sequence (Q15139 whole entry): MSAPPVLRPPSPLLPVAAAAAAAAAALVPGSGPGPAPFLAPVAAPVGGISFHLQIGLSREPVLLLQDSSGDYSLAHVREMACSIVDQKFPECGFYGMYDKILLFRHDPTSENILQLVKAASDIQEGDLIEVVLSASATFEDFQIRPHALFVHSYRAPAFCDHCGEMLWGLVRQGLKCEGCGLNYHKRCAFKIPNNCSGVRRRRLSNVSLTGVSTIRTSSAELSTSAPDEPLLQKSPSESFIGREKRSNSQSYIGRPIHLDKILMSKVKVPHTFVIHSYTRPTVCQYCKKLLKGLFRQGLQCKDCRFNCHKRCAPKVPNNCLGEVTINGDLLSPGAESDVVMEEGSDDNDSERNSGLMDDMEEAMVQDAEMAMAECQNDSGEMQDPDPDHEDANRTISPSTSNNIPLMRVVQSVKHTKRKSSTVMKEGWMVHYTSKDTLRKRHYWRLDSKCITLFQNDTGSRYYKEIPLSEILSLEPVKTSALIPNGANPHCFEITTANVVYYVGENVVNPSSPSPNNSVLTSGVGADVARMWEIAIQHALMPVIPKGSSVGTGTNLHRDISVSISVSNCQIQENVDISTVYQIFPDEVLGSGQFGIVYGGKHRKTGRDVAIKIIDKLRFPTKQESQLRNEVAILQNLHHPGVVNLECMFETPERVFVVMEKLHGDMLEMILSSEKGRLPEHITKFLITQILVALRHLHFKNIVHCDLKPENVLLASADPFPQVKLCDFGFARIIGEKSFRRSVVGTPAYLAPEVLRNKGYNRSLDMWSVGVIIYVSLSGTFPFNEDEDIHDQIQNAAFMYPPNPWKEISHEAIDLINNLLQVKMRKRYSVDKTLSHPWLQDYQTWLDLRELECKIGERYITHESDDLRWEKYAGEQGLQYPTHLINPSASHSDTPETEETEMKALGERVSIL
# KIT(D816V), sequence (P10721 26-976 D816V): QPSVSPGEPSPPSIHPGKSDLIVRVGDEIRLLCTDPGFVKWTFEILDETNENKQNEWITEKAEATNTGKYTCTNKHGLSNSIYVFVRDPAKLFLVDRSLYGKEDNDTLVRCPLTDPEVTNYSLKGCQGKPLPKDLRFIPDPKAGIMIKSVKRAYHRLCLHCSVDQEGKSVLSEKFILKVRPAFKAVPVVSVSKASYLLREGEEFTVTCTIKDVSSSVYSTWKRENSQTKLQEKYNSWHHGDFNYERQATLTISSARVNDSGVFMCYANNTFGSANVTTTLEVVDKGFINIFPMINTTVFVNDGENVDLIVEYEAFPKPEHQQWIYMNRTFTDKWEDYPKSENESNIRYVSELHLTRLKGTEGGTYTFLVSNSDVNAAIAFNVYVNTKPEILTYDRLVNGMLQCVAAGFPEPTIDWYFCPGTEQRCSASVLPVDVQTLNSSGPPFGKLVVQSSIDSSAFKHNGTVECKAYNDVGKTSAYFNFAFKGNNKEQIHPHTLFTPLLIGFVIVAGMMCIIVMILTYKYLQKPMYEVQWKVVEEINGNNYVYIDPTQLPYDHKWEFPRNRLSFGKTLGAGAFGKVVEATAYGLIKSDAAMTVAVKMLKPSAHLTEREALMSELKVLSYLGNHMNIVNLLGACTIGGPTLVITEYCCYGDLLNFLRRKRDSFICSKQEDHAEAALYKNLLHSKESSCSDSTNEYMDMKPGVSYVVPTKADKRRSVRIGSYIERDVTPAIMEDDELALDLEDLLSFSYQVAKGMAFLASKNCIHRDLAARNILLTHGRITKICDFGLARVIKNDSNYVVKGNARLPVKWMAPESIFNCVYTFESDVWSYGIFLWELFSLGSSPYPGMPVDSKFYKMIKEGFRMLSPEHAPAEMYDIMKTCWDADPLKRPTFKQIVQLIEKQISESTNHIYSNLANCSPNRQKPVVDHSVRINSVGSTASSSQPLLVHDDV
# ALK(L1196M), sequence (Q9UM73 19-1620 L1196M): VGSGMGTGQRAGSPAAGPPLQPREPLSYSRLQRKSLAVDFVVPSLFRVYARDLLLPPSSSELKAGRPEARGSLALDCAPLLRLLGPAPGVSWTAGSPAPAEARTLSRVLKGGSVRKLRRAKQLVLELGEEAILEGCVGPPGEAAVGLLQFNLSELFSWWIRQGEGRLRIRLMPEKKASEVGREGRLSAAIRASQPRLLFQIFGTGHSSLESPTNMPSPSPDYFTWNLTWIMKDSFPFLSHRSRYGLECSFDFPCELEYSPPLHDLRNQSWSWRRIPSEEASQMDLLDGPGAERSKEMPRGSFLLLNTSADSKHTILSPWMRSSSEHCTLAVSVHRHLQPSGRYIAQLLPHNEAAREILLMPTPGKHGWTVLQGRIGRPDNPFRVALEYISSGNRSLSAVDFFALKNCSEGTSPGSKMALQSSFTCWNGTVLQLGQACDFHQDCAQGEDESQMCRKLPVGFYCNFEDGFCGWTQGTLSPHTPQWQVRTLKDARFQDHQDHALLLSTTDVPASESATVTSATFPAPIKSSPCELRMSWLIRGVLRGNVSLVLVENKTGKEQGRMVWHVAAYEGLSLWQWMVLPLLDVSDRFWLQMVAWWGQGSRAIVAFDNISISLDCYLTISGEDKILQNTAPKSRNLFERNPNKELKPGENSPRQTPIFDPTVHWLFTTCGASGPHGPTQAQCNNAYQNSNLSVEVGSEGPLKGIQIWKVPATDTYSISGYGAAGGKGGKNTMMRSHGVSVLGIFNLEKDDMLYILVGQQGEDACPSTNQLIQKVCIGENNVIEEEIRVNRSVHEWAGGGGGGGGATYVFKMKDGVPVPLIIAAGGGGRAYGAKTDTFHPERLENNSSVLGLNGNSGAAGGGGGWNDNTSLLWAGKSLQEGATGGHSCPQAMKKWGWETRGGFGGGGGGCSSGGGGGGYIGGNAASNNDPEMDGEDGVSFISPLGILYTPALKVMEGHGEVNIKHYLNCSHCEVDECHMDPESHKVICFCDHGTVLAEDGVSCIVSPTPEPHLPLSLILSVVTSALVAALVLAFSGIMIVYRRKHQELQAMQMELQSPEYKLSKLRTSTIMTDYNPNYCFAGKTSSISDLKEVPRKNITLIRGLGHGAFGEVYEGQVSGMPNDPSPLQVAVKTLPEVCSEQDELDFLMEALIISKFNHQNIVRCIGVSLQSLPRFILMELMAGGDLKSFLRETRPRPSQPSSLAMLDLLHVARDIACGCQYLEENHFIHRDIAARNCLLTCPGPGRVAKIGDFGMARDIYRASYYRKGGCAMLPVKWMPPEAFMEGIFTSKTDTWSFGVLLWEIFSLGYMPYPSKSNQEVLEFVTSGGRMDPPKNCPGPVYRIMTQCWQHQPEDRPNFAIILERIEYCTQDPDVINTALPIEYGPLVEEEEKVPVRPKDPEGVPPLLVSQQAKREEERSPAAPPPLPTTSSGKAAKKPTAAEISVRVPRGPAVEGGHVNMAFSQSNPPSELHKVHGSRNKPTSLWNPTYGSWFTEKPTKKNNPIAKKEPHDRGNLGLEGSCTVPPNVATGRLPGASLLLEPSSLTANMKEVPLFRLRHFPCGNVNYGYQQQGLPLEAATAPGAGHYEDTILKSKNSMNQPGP
# NPM1-ALK, sequence (Q9UM73 with tags, fused parts or gaps): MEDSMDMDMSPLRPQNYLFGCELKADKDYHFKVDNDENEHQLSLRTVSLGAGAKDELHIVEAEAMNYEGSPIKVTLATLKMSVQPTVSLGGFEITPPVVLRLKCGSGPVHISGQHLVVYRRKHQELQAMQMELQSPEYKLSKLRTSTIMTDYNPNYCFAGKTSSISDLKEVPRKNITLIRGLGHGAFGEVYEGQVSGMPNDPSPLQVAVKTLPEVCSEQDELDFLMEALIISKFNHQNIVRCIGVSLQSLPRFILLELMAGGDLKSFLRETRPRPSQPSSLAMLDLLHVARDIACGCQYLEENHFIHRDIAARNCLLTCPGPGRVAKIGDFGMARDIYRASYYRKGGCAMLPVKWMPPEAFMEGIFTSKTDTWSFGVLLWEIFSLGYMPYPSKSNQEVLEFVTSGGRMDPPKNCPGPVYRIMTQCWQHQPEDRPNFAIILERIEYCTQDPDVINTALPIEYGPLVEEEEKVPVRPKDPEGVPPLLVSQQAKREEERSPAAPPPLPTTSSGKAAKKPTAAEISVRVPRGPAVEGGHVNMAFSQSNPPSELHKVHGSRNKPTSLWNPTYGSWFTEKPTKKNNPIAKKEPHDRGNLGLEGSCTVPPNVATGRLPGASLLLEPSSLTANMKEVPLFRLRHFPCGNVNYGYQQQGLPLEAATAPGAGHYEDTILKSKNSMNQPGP
# MSK2, sequence (O75676 whole entry): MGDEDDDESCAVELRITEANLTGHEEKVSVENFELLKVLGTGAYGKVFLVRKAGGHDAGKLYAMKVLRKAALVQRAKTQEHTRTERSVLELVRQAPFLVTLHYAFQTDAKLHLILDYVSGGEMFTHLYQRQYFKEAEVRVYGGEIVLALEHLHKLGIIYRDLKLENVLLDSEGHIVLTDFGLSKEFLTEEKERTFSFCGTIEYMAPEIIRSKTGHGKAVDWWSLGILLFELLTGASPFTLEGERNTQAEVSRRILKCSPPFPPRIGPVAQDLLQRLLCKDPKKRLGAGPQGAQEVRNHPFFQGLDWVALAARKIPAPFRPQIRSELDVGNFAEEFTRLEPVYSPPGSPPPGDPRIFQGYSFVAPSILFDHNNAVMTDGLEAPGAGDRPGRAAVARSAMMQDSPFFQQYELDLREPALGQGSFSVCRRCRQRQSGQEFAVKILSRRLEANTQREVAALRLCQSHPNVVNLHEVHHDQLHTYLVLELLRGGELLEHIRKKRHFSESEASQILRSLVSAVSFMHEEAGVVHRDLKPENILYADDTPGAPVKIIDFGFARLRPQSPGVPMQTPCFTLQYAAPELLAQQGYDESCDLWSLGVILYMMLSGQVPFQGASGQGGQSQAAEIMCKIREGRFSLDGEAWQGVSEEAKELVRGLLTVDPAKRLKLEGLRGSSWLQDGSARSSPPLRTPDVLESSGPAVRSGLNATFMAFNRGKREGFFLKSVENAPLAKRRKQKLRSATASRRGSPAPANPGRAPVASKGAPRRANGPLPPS
structure (smiles),measurement,setting,value
CC(C)(C)Cc1[nH]nc2c1[C@](C)(c1ccccc1)C1=C(CC(C)(C)CC1=O)N2 [BRD3731],% Inhibition 10 μM,[1]; 10 μM,−0.5%
same,% Inhibition 10 μM,[2]; 10 μM,4.9%
same,% Inhibition 10 μM,[3]; 10 μM,6.4%
same,% Inhibition 10 μM,[4]; 10 μM,−2.1%
same,% Inhibition 10 μM,[5]; 10 μM,−16.4%
same,% Inhibition 10 μM,[6]; 10 μM,−3.4%
same,% Inhibition 10 μM,[7]; 10 μM,5.0%
same,% Inhibition 10 μM,[8]; 10 μM,−1.7%
same,% Inhibition 10 μM,[9]; 10 μM,−6.7%
same,% Inhibition 10 μM,[10]; 10 μM,8.3%
same,% Inhibition 10 μM,[11]; 10 μM,4.1%
same,% Inhibition 10 μM,[12]; 10 μM,2.3%
same,% Inhibition 10 μM,[13]; 10 μM,−4.1%
same,% Inhibition 10 μM,[14]; 10 μM,−0.2%
same,% Inhibition 10 μM,[15]; 10 μM,−2.1%
same,% Inhibition 10 μM,[16]; 10 μM,−0.6%
same,% Inhibition 10 μM,[17]; 10 μM,−2.7%
same,% Inhibition 10 μM,[18]; 10 μM,−0.2%
same,% Inhibition 10 μM,[19]; 10 μM,3.6%
same,% Inhibition 10 μM,[20]; 10 μM,18.1%
same,% Inhibition 10 μM,[21]; 10 μM,16.2%
same,% Inhibition 10 μM,[22]; 10 μM,12.6%
same,% Inhibition 10 μM,[23]; 10 μM,11.4%
same,% Inhibition 10 μM,[24]; 10 μM,1.4%
same,% Inhibition 10 μM,[25]; 10 μM,7.6%
same,% Inhibition 10 μM,[26]; 10 μM,1.9%
same,% Inhibition 10 μM,[27]; 10 μM,−0.7%
same,% Inhibition 10 μM,[28]; 10 μM,0.8%
same,% Inhibition 10 μM,[29]; 10 μM,−3.2%
same,% Inhibition 10 μM,[30]; 10 μM,8.9%
same,% Inhibition 10 μM,[31]; 10 μM,4.4%
same,% Inhibition 10 μM,[32]; 10 μM,4.0%
same,% Inhibition 10 μM,[33]; 10 μM,3.7%
same,% Inhibition 10 μM,[34]; 10 μM,8.9%
same,% Inhibition 10 μM,[35]; 10 μM,1.7%
same,% Inhibition 10 μM,[36]; 10 μM,10.7%
same,% Inhibition 10 μM,[37]; 10 μM,1.5%
same,% Inhibition 10 μM,[38]; 10 μM,−2.4%
same,% Inhibition 10 μM,[39]; 10 μM,3.9%
same,% Inhibition 10 μM,[40]; 10 μM,−3.8%
CC[C@@]1(c2ccccc2)C2=C(CC(C)(C)CC2=O)Nc2n[nH]cc21 [BRD0705],% Inhibition at 10 μM,[1],−5.8%
same,% Inhibition at 10 μM,[2],7.3%
same,% Inhibition at 10 μM,[3],−2.5%
same,% Inhibition at 10 μM,[4],3.7%
same,% Inhibition at 10 μM,[5],2.9%
same,% Inhibition at 10 μM,[6],−6.0%
same,% Inhibition at 10 μM,[7],−1.0%
same,% Inhibition at 10 μM,[8],3.5%
same,% Inhibition at 10 μM,[9],−4.0%
same,% Inhibition at 10 μM,[10],−0.3%
same,% Inhibition at 10 μM,[11],−3.0%
same,% Inhibition at 10 μM,[12],−3.9%
same,% Inhibition at 10 μM,[13],−5.2%
same,% Inhibition at 10 μM,[14],−2.7%
same,% Inhibition at 10 μM,[15],−4.5%
same,% Inhibition at 10 μM,[16],−3.1%
same,% Inhibition at 10 μM,[17],4.0%
same,% Inhibition at 10 μM,[18],−4.7%
same,% Inhibition at 10 μM,[19],0.4%
same,% Inhibition at 10 μM,[20],−9.1%
same,% Inhibition at 10 μM,[21],1.8%
same,% Inhibition at 10 μM,[22],−2.5%
same,% Inhibition at 10 μM,[23],4.2%
same,% Inhibition at 10 μM,[24],1.7%
same,% Inhibition at 10 μM,[25],−2.0%
same,% Inhibition at 10 μM,[26],0.9%
same,% Inhibition at 10 μM,[27],−15.2%
same,% Inhibition at 10 μM,[28],−2.0%
same,% Inhibition at 10 μM,[29],−9.9%
same,% Inhibition at 10 μM,[30],7.8%
same,% Inhibition at 10 μM,[31],−7.3%
same,% Inhibition at 10 μM,[32],−1.5%
same,% Inhibition at 10 μM,[33],−3.5%
same,% Inhibition at 10 μM,[34],−6.8%
same,% Inhibition at 10 μM,[35],5.0%
same,% Inhibition at 10 μM,[36],−5.5%
same,% Inhibition at 10 μM,[37],−3.6%
same,% Inhibition at 10 μM,[38],−9.9%
same,% Inhibition at 10 μM,[39],−7.3%
same,% Inhibition at 10 μM,[40],2.7%
